“Also recorded” adds a separate entry of the source.
What was measured:
HeLa cells [1] = assay: Cytotoxicity test with Alamar blue; assay type: cell-based, Human; conditions: FIG. 6, text says 5 hours, figure legend 24 and 48 hours
Description: In order to determine if the LnZn16(pyz)16MC complexes (Ln^3+Zn(II)MCHAD are toxic for live cells, cytotoxicity tests with Alamar blue were performed.
Alamar blue is viability reagent which functions as a cell health indicator by using the reducing power of living cells to quantitatively measure the proliferation of different human and animal cell lines. This enables the cytotoxicity of different chemical complexes to be determined. The active ingredient of Alamar Blue is resazurin, which is non-toxic and cell permeable compound, and upon entering in the cells, it is reduced to highly fluorescent resorufin.
The cytotoxicity tests were performed with Alamar blue assay (Invitrogen, France). HeLa cells were seeded in 96-well plate at the density of 1*10^4 cells per well and cultured at 37° C. in 5% humidified CO2 atmosphere. After 24 hours of attachment, the cells were incubated with different concentrations of Yb^3+[Zn(II)MCpyzHA] in cell culture medium for 24 and 48 hours followed by incubation with Alamar blue (10% v/v) for 3 to 4 hours at 37° C. in 5% humidified CO2 atmosphere.
Fluorescence of Alamar blue was measured with plate reader (Victor 3V, Perkin Elmer, France), with excitation at 530 nm and emission at 590 nm, for cells incubated with Yb^3+[Zn(II)MCpyzHA] and for untreated cells (control).

HeLa cells [2] = assay: Confocal microscopy of HeLa cells; assay type: cell-based, Human; conditions: 150 μM, 15 minutes, UV light (377 nm) 8 minutes, further 1 hour; λex 458 nm, λem 499-799 nm
MSC stem cells = conditions: 150 μM, 15 minutes, UV light (377 nm) 8 minutes, further 1 hour; λex 458 nm, λem 499-799 nm
Description: For these confocal microscopy experiments, the HeLa or MSC cells were prepared in the same way as for the epifluorescence microscopy experiments (see Example 1, Short incubation, UV light exposure #1 and #3). […] Complexes were excited with Argon laser at 458 nm and emission signal was collected from 499 nm to 799 nm. During this experiment, a 63× Plan-Apochromat objective was used (2× zoom).

[3] = Photophysical parameters in OPTI-MEM media, cell supernatant and HeLa cells; assay type: physicochemical
Description: The Yb^3+[Zn(II)MCpyzHA] complexes were dissolved in OPTI-MEM® medium with 2% SVF (without cells) and were incorporated in HeLa cells, both with and without exposure to UV light. The results in are shown in FIG. 20, (A) (corrected and normalized excitation) and FIG. 20, (B) (corrected and normalized emission). […] The present inventors developed instrumentation in order to collect photophysical properties of MCs inside of cancer cells. They measured quantitative photophysical parameters (quantum yields and life times) inside of the cells with equipment which is usually adapted for measuring of (quantum yields and life times) in solids or in concentrated solutions.
The Yb^3+[Zn(II)MCpyzHA] complexes were collected together with cell supernatant (SN) and with HeLa cells treated with N-acetyl cysteine, both with and without exposure to UV light. For SN1 and cells1, incubation with NAC took place for 30 minutes, then the cells were washed, and incubation with Yb^3+[Zn(II)MCpyzHA] took place for 15 minutes. For SN2 and cells2, incubation with Yb^3+[Zn(II)MCpyzHA] took place for 15 minutes, and then NAC was added and incubation with NAC took place for 30 minutes. The results in are shown in FIGS. 20C (corrected and normalized excitation) and 20D (corrected and normalized emission). […]

HeLa cells [4] = assay: NIR epifluorescence microscopy of HeLa cells (necrotic cell labelling, simultaneous staining and fixing); assay type: cell-based, Human; conditions: for Colocalization with propidium iodide: then 3 μM PI 5 minutes
[5] = No UV NAC (SN1*): cell supernatant, NAC 30 minutes, washed, then complex 15 minutes
[6] = No UV NAC (SN2*): cell supernatant, complex 15 minutes, then NAC 30 minutes
[7] = No UV NAC (in cells1*): NAC 30 minutes, washed, then complex 15 minutes
[8] = No UV NAC (in cells2*): complex 15 minutes, then NAC 30 minutes
[9] = No UV: After 5 h of incubation with HeLa cells without illumination
[10] = UV NAC (SN2*): cell supernatant, complex 15 minutes, then NAC 30 minutes
[11] = UV NAC (in cells2*): complex 15 minutes, then NAC 30 minutes
[12] = UV: After 5 h of incubation with HeLa cells with UV illumination (during 8 min)
[13] = 150 μM, 15 minutes, UV light (377 nm) 8 minutes, further 1 hour

O=C([N-][O-])c1cnccn1.O=C([N-][O-])c1cnccn1.O=C([N-][O-])c1cnccn1.O=C([N-][O-])c1cnccn1.O=C([N-][O-])c1cnccn1.O=C([N-][O-])c1cnccn1.O=C([N-][O-])c1cnccn1.O=C([N-][O-])c1cnccn1.O=C([N-][O-])c1cnccn1.O=C([N-][O-])c1cnccn1.O=C([N-][O-])c1cnccn1.O=C([N-][O-])c1cnccn1.O=C([N-][O-])c1cnccn1.O=C([N-][O-])c1cnccn1.O=C([N-][O-])c1cnccn1.O=C([N-][O-])c1cnccn1.O=S(=O)([O-])C(F)(F)F.O=S(=O)([O-])C(F)(F)F.O=S(=O)([O-])C(F)(F)F.[Yb+3].[Zn+2].[Zn+2].[Zn+2].[Zn+2].[Zn+2].[Zn+2].[Zn+2].[Zn+2].[Zn+2].[Zn+2].[Zn+2].[Zn+2].[Zn+2].[Zn+2].[Zn+2].[Zn+2].c1ccncc1.c1ccncc1.c1ccncc1.c1ccncc1.c1ccncc1.c1ccncc1.c1ccncc1.c1ccncc1 [Yb^3+[Zn(II)MCpyzHA]]
Cells remained alive (HeLa cells [1]; 45 μM): approximately 70%
Concentration from which the complex started to be significantly toxic (HeLa cells [1]): ≥ 45 µM
Intracellular location (confocal, visible ligand emission) (HeLa cells [2]): specifically located in nucleus as well as in cytoplasm
Intracellular location (confocal, visible ligand emission) (MSC stem cells): specifically located in nucleus as well as in cytoplasm
Quantum yield ([3]; In HeLa cells): 2.14(6) · 10^−2%
τ2 ([3]; In HeLa cells): 23.6(7) μs
τ2 contribution ([3]; In HeLa cells): 100%
Quantum yield [3, 5]: 1.08(1) · 10^−2%
τ1 [3, 5]: 7.27(2) μs
τ1 contribution [3, 5]: 91%
τ2 [3, 5]: 50(2) μs
τ2 contribution [3, 5]: 9%
Quantum yield [3, 6]: 1.00(4) · 10^−2%
τ1 [3, 6]: 6.72(3) μs
τ1 contribution [3, 6]: 88%
τ2 [3, 6]: 28.4(1) μs
τ2 contribution [3, 6]: 12%
τ1 [3, 7]: 7.5(4) μs
τ1 contribution [3, 7]: 6%
τ2 [3, 7]: 22.9(1) μs
τ2 contribution [3, 7]: 94%
τ1 [3, 8]: 7.3(1) μs
τ1 contribution [3, 8]: 7%
τ2 [3, 8]: 23.6(2) μs
τ2 contribution [3, 8]: 93%
Quantum yield [3, 9]: 1.52(3) · 10^−2%
τ1 [3, 9]: 6.47(4) μs
τ1 contribution [3, 9]: 75%
τ2 [3, 9]: 21.6(8) μs
τ2 contribution [3, 9]: 25%
Quantum yield ([3]; OptiMEM): 1.25(1) · 10^−2%
τ1 ([3]; OptiMEM): 6.45(5) μs
τ1 contribution ([3]; OptiMEM): 89%
τ2 ([3]; OptiMEM): 24(1) μs
τ2 contribution ([3]; OptiMEM): 11%
Quantum yield ([3]; OptiMEM-UV 1 h 30 min): 2.05(5) · 10^−2%
τ1 ([3]; OptiMEM-UV 1 h 30 min): 7.03(3) μs
τ1 contribution ([3]; OptiMEM-UV 1 h 30 min): 61%
τ2 ([3]; OptiMEM-UV 1 h 30 min): 21.5(1) μs
τ2 contribution ([3]; OptiMEM-UV 1 h 30 min): 39%
Quantum yield [3, 10]: 1.06(5) · 10^−2%
τ1 [3, 10]: 6.80(9) μs
τ1 contribution [3, 10]: 75%
τ2 [3, 10]: 23(1) μs
τ2 contribution [3, 10]: 25%
τ1 [3, 11]: 8.7(5) μs
τ1 contribution [3, 11]: 9%
τ2 [3, 11]: 23.2(1) μs
τ2 contribution [3, 11]: 91%
Quantum yield [3, 12]: 1.64(5) · 10^−2%
τ1 [3, 12]: 6.51(8) μs
τ1 contribution [3, 12]: 65%
τ2 [3, 12]: 21(1) μs
τ2 contribution [3, 12]: 35%
Contribution of the long lifetime inside of HeLa cells ([3]; all experimental conditions): more than 90%
Integrity of the MC ([3]; cell culture media and cells, different experimental conditions): stays intact in cell culture media and in the cells
Change of luminescent properties in media, cell supernatant or HeLa cells ([3]; with/without exposure to UV light): did not change in the cells; also recorded: did not change in cell supernatant or inside of the HeLa cells
Selectivity of labelling for necrotic cells (HeLa cells [4]; 45 μM, 15 minutes, no UV light exposure (also 150 μM, 12 hours)): going exclusively in necrotic cells
Specificity of the dye for cell state (HeLa cells [4]; 150 μM complex and 3 μM propidium iodide together, UV light (377 nm) 5 minutes): specific for dead and apoptotic cells
NIR staining of fixed HeLa cancer cells (cell compartments) (HeLa cells [4]; [13]): operates as a NIR stain for the nucleus as well as for the cytoplasm
Shape and morphology of stained and fixed cells one month after the procedure (HeLa cells [4]; 150 μM, 15 minutes, UV light (377 nm) 8 minutes, further 1 hour, imaged one month later): maintained the same shape and morphology
Colocalization with propidium iodide (HeLa cells [4]; [13]): colocalize in the same cell compartments
Colocalization with propidium iodide (HeLa cells [4]; 150 μM, 12 hours, no UV light): colocalize in the same cell compartment
Toxicity to the HeLa cell line (HeLa cells [4]; 150 μM, incubation during 12 hours, no UV light exposure): toxic
